Laboratory results taken from patent publication US20230021448A1, “COMPOUNDS AND COMPOSITIONS FOR TREATING CONDITIONS ASSOCIATED WITH STING ACTIVITY” (IFM Due, Inc., priority 2019, published 2023).

Each compound was assayed against T1, STING (Homo sapiens, UniProt Q86WV6, G230A/H232R/R293Q/R71H) (assay: STING reporter assay: luciferase reporter activity in THP1-Dual KO-IFNAR2 cells stimulated with 2'3'cGAMP). Conditions: 2′3′cGAMP 15 μM final, 24h, read-out: hSTING: EC50.
T1 construct: host or cells: THP1-Dual KO-IFNAR2 cells
Assay type: cell-based
Procedure, shortened: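 THP1-Dual KO-IFNAR2 cells (2×10E6 cells/mL) incubated with compounds at 0.0017-100 μM final plus Lipofectamine-transfected 2′3′cGAMP (15 μM final), 24 h at 37 °C, 5% CO2. Luciferase in supernatant read by QUANTI-Luc luminescence; EC50 derived.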

T1 sequence (Q86WV6 whole entry R71H/G230A/H232R/R293Q): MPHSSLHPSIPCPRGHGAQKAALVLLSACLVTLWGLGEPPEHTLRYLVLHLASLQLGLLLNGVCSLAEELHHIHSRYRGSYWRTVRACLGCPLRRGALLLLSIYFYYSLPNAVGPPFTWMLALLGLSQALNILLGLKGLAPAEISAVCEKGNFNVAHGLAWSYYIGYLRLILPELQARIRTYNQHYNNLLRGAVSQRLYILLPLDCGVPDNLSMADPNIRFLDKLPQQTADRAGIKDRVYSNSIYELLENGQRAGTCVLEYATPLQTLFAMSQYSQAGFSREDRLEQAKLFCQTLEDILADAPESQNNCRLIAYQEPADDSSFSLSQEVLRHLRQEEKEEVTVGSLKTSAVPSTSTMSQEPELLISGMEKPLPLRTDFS

Compound | EC50 [µM]
C[C@H](NC(=O)C(=O)Nc1c[nH]c2cc(F)c(F)cc12)c1ccc(C(F)(F)F)cn1 [Compound 298, N-(5,6-difluoro-1H-indol-3-yl)-N′-[(1S)-1-[5-(trifluoromethyl)pyridin-2-yl]ethyl]ethanediamide] | 0.2 to 1
COc1ccc(CCNC(=O)C(=O)Nc2c[nH]c3cc(F)c(F)cc23)cn1 [Compound 299, N-(5,6-difluoro-1H-indol-3-yl)-N′-[2-(6-methoxypyridin-3-yl)ethyl]ethanediamide] | 1 to 5
O=C(Nc1c[nH]c2cc(F)c(F)cc12)C(=O)NC1CCC(O)(C(F)(F)F)CC1 (stereo not drawn) [Compound 300, N-(5,6-difluoro-1H-indol-3-yl)-N′-[4-hydroxy-4-(trifluoromethyl)cyclohexyl] ethanediamide] | 5 to 100
O=C(Nc1c[nH]c2cc(F)c(F)cc12)C(=O)NC1COc2ccccc2C1 (stereo not drawn) [Compound 301, N-(5,6-difluoro-1H-indol-3-yl)-N′-(3,4-dihydro-2H-1-benzopyran-3-yl)ethanediamide] | 0.2 to 1
O=C(Nc1ccc(C(F)(F)F)cc1)C(=O)Nc1c[nH]c2ccc(Br)cc12 [Compound 302] | 0.04 to 0.2
CC(NC(=O)C(=O)Nc1c[nH]c2cc(F)c(F)cc12)c1cc(C(F)(F)F)c(Cl)cn1 (stereo not drawn) [Compound 303] | 0.2 to 1
O=C(NCc1ccc2ccccc2n1)C(=O)Nc1c[nH]c2cc(F)c(F)cc12 [Compound 304, N-(5,6-difluoro-1H-indol-3-yl)-N′-[(quinolin-2-yl)methyl] ethanediamide] | 0.2 to 1
O=C(NCCOC1CCCC1)C(=O)Nc1c[nH]c2cc(F)c(F)cc12 [Compound 305, N'-[2-(cyclopentyloxy)ethyl]-N-(5,6-difluoro-1H-indol-3-yl)ethanediamide] | 0.2 to 1
CN(C(=O)CNC(=O)C(=O)Nc1c[nH]c2cc(F)c(F)cc12)c1ccccc1 [Compound 306, N-(5,6-difluoro-1H-indol-3-yl)-N′-{[methyl(phenyl)carbamoyl]methyl} ethanediamide] | 1 to 5
CN(CCCNC(=O)C(=O)Nc1c[nH]c2cc(F)c(F)cc12)c1ccccc1 [Compound 307, N-(5,6-difluoro-1H-indol-3-yl)-N′-{3-[methyl(phenyl)amino]propyl}ethanediamide] | 0.2 to 1
CN(C)CC(NC(=O)C(=O)Nc1c[nH]c2cc(F)c(F)cc12)c1ccccc1 (stereo not drawn) [Compound 308, N-(5,6-difluoro-1H-indol-3-yl)-N′-[2-(dimethylamino)-1-phenylethyl] ethanediamide] | 5 to 100
O=C(NCC(=O)N1CCc2ccccc21)C(=O)Nc1c[nH]c2cc(F)c(F)cc12 [Compound 309, N-(5,6-difluoro-1H-indol-3-yl)-N′-[2-(2,3-dihydro-1H-indol-1-yl)-2-oxoethyl] ethanediamide] | 0.2 to 1
COCC(NC(=O)C(=O)Nc1c[nH]c2cc(F)c(F)cc12)c1ccccc1 (stereo not drawn) [Compound 310, N-(5,6-difluoro-1H-indol-3-yl)-N′-(2-methoxy-1-phenylethyl) ethanediamide] | 1 to 5
CCC(NC(=O)C(=O)Nc1c[nH]c2cc(F)c(F)cc12)c1cccc(C(F)(F)F)c1 (stereo not drawn) [Compound 311, N-(5,6-difluoro-1H-indol-3-yl)-N′-{1-[3-(trifluoromethyl)phenyl]propyl} ethanediamide] | 0.2 to 1
O=C(Nc1c[nH]c2cc(F)c(F)cc12)C(=O)NC(c1ccccc1)C(F)(F)F (stereo not drawn) [Compound 312, N1-(5,6-difluoro-1H-indol-3-yl)-N2-(2,2,2-trifluoro-1-phenylethyl)oxalamide] | 0.2 to 1
O=C(Nc1c[nH]c2cc(F)c(F)cc12)C(=O)NC1CCc2ccccc2C1 (stereo not drawn) [Compound 313, N-(5,6-difluoro-1H-indol-3-yl)-N′-(1,2,3,4-tetrahydronaphthalen-2-yl)ethanediamide] | 0.2 to 1
O=C(Nc1c[nH]c2cc(F)c(F)cc12)C(=O)NC1CCC2(CCCC2)CC1 [Compound 314] | 0.2 to 1
O=C(Nc1c[nH]c2cc(F)c(F)cc12)C(=O)NC1CCC(Oc2ccc(C(F)(F)F)cc2)CC1 (stereo not drawn) [Compound 315] | 0.04 to 0.2
O=C(Nc1c[nH]c2cc(F)c(F)cc12)C(=O)NC1CCC(Oc2ccccn2)CC1 (stereo not drawn) [Compound 316] | 0.2 to 1
O=C(Nc1c[nH]c2cc(F)c(F)cc12)C(=O)N1CCC(Oc2ccc(C(F)(F)F)cc2)CC1 [Compound 317] | 0.2 to 1
Cc1cnc(CNC(=O)C(=O)Nc2c[nH]c3cc(F)c(F)cc23)cc1C(F)(F)F [Compound 318] | 0.2 to 1
N#Cc1ccc2[nH]cc(NC(=O)C(=O)NCc3ccc(C(F)(F)F)c(Cl)c3)c2c1 [Compound 321] | 0.2 to 1
CN(CCNC(=O)C(=O)Nc1c[nH]c2cc(F)c(F)cc12)c1ccccn1 [Compound 322] | 0.2 to 1
Cc1cc2c(cn1)C(NC(=O)C(=O)Nc1c[nH]c3cc(F)c(F)cc13)CCC2 (stereo not drawn) [Compound 323] | 0.2 to 1

Compound | EC50 [µM]
O=C(NCc1ccnc(N2CCCCC2)c1)C(=O)Nc1c[nH]c2cc(F)c(F)cc12 [Compound 324] | 0.2 to 1
O=C(NCCOc1cncc(C(F)(F)F)c1)C(=O)Nc1c[nH]c2cc(F)c(F)cc12 [Compound 325] | 0.2 to 1
O=C(NCc1cccc(N2CCCCC2)n1)C(=O)Nc1c[nH]c2cc(F)c(F)cc12 [Compound 326] | 0.2 to 1
O=C(NCCOc1ccc(C(F)(F)F)nc1)C(=O)Nc1c[nH]c2cc(F)c(F)cc12 [Compound 327] | 0.2 to 1
CC(CN(C)c1ccccc1)NC(=O)C(=O)Nc1c[nH]c2cc(F)c(F)cc12 (stereo not drawn) [Compound 328] | 0.2 to 1
CN(CCNC(=O)C(=O)Nc1c[nH]c2cc(F)c(F)cc12)c1ccccc1 [Compound 331] | 0.2 to 1
O=C(Nc1c[nH]c2cc(F)c(F)cc12)C(=O)NC1CCN(c2cccnc2)C1 (stereo not drawn) [Compound 332] | 1 to 5
O=C(NCc1cnc(C2CCC(F)(F)CC2)c(F)c1)C(=O)Nc1c[nH]c2cc(F)c(F)cc12 [Compound 333] | 0.2 to 1
O=C(NCc1ccc(Cl)c(C(F)(F)F)n1)C(=O)Nc1c[nH]c2cc(F)c(F)cc12 [Compound 334] | 0.2 to 1
O=C(NCc1cc(C(F)(F)F)c(Cl)cn1)C(=O)Nc1c[nH]c2cc(F)c(F)cc12 [Compound 335] | 0.04 to 0.2
O=C(Nc1c[nH]c2cc(F)c(F)cc12)C(=O)NC1CCN(Cc2cccc(C(F)(F)F)c2)C1 (stereo not drawn) [Compound 336] | 0.2 to 1
O=C(Nc1c[nH]c2cc(F)c(F)cc12)C(=O)NC1CCN(c2ccc(C(F)(F)F)cn2)C1 (stereo not drawn) [Compound 337] | 0.2 to 1
O=C(NCc1cccc(C(F)(F)F)n1)C(=O)Nc1c[nH]c2cc(F)c(F)cc12 [Compound 338] | 0.2 to 1
O=C(NCc1ccc(C(F)(F)F)c(Cl)c1)C(=O)Nc1c[nH]c2ccc(CCO)cc12 [Compound 339, N-(3-chloro-4-(trifluoromethyl)benzyl)-N′-(5-(2-hydroxyethyl)-1H-indol-3-yl)oxalamide] | 0.2 to 1
CC(C)(O)c1cccc(-c2ccc3[nH]cc(NC(=O)C(=O)NCc4ccc(C(F)(F)F)c(Cl)c4)c3c2)c1 [Compound 340] | 1 to 5
CC(C)n1cc(-c2cc3c(NC(=O)C(=O)Nc4ccc(C(F)(F)F)cc4)c[nH]c3cc2F)cn1 [Compound 341, N-(6-fluoro-5-(1-isopropyl-1H-pyrazol-4-yl)-1H-indol-3-yl)-N′-(4-(trifluoromethyl)phenyl)oxalamide] | 0.2 to 1
O=C(NCc1ccnc(C(F)(F)F)c1)C(=O)Nc1c[nH]c2cc(F)c(F)cc12 [Compound 342] | 0.2 to 1
O=C(NCc1cncc(C(F)(F)F)c1)C(=O)Nc1c[nH]c2cc(F)c(F)cc12 [Compound 343] | 0.2 to 1
O=C(NCc1ccc(C(F)(F)F)nc1)C(=O)Nc1c[nH]c2cc(F)c(F)cc12 [Compound 344] | 0.2 to 1
CC(C)n1cc(-c2ccc3[nH]cc(NC(=O)C(=O)Nc4ccc(C(F)(F)F)cc4)c3c2)cn1 [Compound 346] | 0.2 to 1
O=C(NC[C@@H](c1ccccc1)C(F)F)C(=O)Nc1c[nH]c2cc(F)c(F)cc12 [Compound 348] | 0.2 to 1
O=C(NCc1ccc(C(F)(F)F)c(Cl)c1)C(=O)Nc1c[nH]c2ccc(-c3cccc(CO)c3)cc12 [Compound 349, N-(3-chloro-4-(trifluoromethyl)benzyl)-N′-(5-(3-(hydroxymethyl)phenyl)-1H-indol-3-yl)oxalamide] | 1 to 5
O=C(NCc1ccc(C(F)(F)F)c(Cl)c1)C(=O)Nc1c[nH]c2ccc(-c3cnn(CC(F)(F)F)c3)cc12 [Compound 350] | 0.2 to 1
O=C(NCCc1cccc(C(F)(F)F)c1)C(=O)Nc1c[nH]c2cc(F)c(F)cc12 [Compound 351] | 0.2 to 1
